Measurements from patent publication US20250353891A1 (MEDIMMUNE LIMITED, priority 2022, published 2025).
Starred links: 1 amine or outer side, 2 acyl side, 3 side chain; linkers in the order of their positions; H or OH if unused. Non-standard residues stand in square brackets, D forms with d. Residues, ends and D or L forms follow the SMILES beside them. Groups on a side chain read outwards from the residue. *: point of attachment. C20 diacid = O=C(O)CCCCCCCCCCCCCCCCCCC(=O)*; C18 diacid = O=C(O)CCCCCCCCCCCCCCCCC(=O)*; γGlu = O=C(O)[C@H](CCC(=O)[*:2])N[*:1]; αMeF = C[C@](N)(Cc1ccccc1)C(=O)O; AEEA = NCCOCCOCC(=O)O; Aib = CC(C)(N)C(=O)O

Key:
wildtype (WT) mice = assay: Glucose change in wildtype mice; format: in vivo, mouse; settings: s.c., 60 min vs 0 min, no somatostatin pretreatment
In short: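 Wildtype mice aged 8-14 weeks, fasted 2 h, sometimes pre-treated with octreotide 10 mg/kg 30 min before peptide injection. Blood glucose by glucometer at -30, 0, 30, 60, 120, 180, 240 and 360 min; n=4-8/group, mice reused up to 3 times with ≥1 week wash-out.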

[1] = biological target: human GLP-1 receptor (hGLP-1R) (Homo sapiens, UniProt P43220); assay: cAMP production (HTRF) in CHO cells expressing hGLP-1R; format: cell-based; design: expressed in transfected cells; settings: for EC50: Table 6, peptides modified at position 17, cAMP in CHO hGLP-1R cells, geometric mean, read-out: hGLP-1R EC50; for % Relative Potency Ratio: Table 6, % GLP-1R activity relative to GLP-1 / % GlucR activity relative to glucagon
Chain of human GLP-1 receptor (hGLP-1R) (P43220 24-463): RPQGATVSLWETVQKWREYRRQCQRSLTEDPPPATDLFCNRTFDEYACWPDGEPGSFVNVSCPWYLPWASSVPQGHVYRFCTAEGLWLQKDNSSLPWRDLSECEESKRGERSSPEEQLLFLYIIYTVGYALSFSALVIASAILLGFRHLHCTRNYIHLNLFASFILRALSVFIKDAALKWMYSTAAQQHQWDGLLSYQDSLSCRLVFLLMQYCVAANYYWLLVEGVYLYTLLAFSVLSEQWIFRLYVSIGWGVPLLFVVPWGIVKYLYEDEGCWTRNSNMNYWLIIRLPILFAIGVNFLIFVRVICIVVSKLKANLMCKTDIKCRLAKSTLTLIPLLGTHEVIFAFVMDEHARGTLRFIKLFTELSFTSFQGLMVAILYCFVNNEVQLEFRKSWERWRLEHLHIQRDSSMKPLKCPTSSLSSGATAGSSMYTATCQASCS
In short: (§1)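 Cells were resuspended in assay buffer at batch-optimized density, typically 1×10^5 cells/mL for hGLP-1R and 2×10^5 cells/mL for hGCGR. After 30 min incubation at room temperature with compound, cAMP was measured by two-step HTRF. EC50 values came from 4-parameter logistic fits of % Delta F.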

in vivo = settings: male, C57BL/6, mouse, 10 nmol/kg; for half-life: iv
Text: Selected test peptides (n=8) were profiled for pharmacokinetic (PK) properties in the mouse after single intravenous (i.v.) or subcutaneous (s.c.) dose. A subset (n=4) meeting the acceptance criteria was subsequently profiled in the dog (single i.v. dose) and non-human primate (single i.v. and s.c. dose). […] Low-binding plasticware containers were used during preparation and sample handling to avoid non-specific binding.
After dosing, PK samples were collected from the dorsal metatarsal vein. Blood of each sample was transferred into plastic micro centrifuge tubes containing EDTA-K2, inverted several times for proper mixing of contents and then placed on wet ice. The blood samples were centrifuged at 4° C. to obtain plasma and stored at −75° C. prior to analysis.
Samples analysis: Samples were analyzed by LC-MS/MS. Calibration standards were injected at the beginning and end of each batch and the determined concentration for each prepared standard was used to construct a calibration curve. Plasma and dose aliquot sample concentrations were determined from the plasma calibration curve.
Data analysis: Plasma concentration data was analyzed by non-compartmental analysis (NCA) using Phoenix Winnonlin v. 8.3.3.33. Linear trapezoidal rule was used for increasing values and log trapezoidal rule was used for decreasing values, applying uniform weighting for lambda_z calculations. Subcutaneous bioavailability was calculated as the ratio AUC(s.c.)0-inf/AUC(i.v.)0-inf. Reported values (Table 18) represent the mean of the individual estimates.

[2] = biological target: human glucagon receptor (hGCGR) (Homo sapiens, UniProt P47871); assay: cAMP production (HTRF) in CHO cells expressing hGCGR; format: cell-based; design: expressed in transfected cells; settings: Table 6, peptides modified at position 17; cAMP in CHO hGCGR cells; geometric mean; read-out: hGluc-R EC50
Chain of human glucagon receptor (hGCGR) (P47871 26-477): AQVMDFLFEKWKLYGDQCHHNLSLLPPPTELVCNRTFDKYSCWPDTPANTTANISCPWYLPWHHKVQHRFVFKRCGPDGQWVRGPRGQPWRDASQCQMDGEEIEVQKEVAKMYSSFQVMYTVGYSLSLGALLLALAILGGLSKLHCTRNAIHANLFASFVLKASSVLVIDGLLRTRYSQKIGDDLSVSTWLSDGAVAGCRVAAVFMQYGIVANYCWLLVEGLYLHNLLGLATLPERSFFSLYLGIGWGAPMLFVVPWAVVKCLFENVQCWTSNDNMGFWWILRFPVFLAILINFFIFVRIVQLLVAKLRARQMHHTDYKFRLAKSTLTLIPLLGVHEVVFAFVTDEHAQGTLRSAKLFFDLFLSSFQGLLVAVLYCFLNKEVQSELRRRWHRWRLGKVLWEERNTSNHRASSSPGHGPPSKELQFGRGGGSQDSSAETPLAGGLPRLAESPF
In short: as §1

[3] = system: GLP-1R knockout (KO) mice; assay: Glucose change in GLP-1R knockout mice; format: in vivo, mouse; settings: GLP-1R KO mice, s.c., 60 min vs 0 min, no somatostatin pretreatment
In short: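 GLP-1R knockout mice (n=4-8/group, sorted by body weight) were fasted 2 h, and in some studies pretreated with octreotide 10 mg/kg 30 min before peptide injection. Mice were reused up to 3 times with at least 1-week wash-out.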

[4] = Mouse acute food intake study; format: in vivo; settings: male C57Bl/6 mice, s.c., dose 10 nmol/kg, cumulative food intake at 24 hr vs vehicle
In short: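 Single-housed male C57Bl/6 mice (8-9 weeks on arrival), chow-fed, acclimated and sham-dosed ≥2 times, were fasted 6-8 h, then given vehicle or peptide subcutaneously at 5 mL/kg 1-2 h before lights out. Food intake was recorded automatically over 48 h and analysed as cumulative intake.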

In the case of `CC(C)C[C@H](NC(=O)[C@H](Cc1c[nH]c2ccccc12)NC(=O)[C@H](CCCNC(=N)N)NC(=O)[C@@H](NC(=O)[C@H](Cc1ccccc1)NC(=O)[C@H](CC(=O)O)NC(=O)[C@H](CCC(N)=O)NC(=O)[C@H](C)NC(=O)[C@H](CCCNC(=N)N)NC(=O)[C@H](CCCCNC(=O)COCCOCCNC(=O)COCCOCCNC(=O)CC[C@H](NC(=O)CCCCCCCCCCCCCCCCC(=O)O)C(=O)O)NC(=O)[C@@H](NC(=O)[C@H](CC(=O)O)NC(=O)[C@H](CC(C)C)NC(=O)[C@](C)(Cc1ccccc1)NC(=O)[C@H](CCCCN)NC(=O)[C@H](CO)NC(=O)[C@@H](NC(=O)[C@H](CC(=O)O)NC(=O)[C@H](CO)NC(=O)[C@@H](NC(=O)[C@H](Cc1ccccc1)NC(=O)[C@@H](NC(=O)CNC(=O)[C@H](CCC(N)=O)NC(=O)C(C)(C)NC(=O)[C@@H](N)Cc1c[nH]cn1)[C@@H](C)O)[C@@H](C)O)C(C)C)[C@@H](C)O)C(C)C)C(=O)N[C@@H](CC(C)C)C(=O)N[C@@H](CCC(=O)O)C(=O)NC(C)(C)C(=O)NCC(=O)O` [Peptide 140] (H-H[Aib]QGTFTSDVSK[αMeF]LDTK([AEEA-AEEA-γGlu-C18 diacid])RAQDFVRWLLE[Aib]G-OH; N-terminus assumed), the “WT % glucose change 60 min” value (wildtype (WT) mice; 10 nmol/kg) is reported as −32.1%, the “WT % glucose change 60 min” value (wildtype (WT) mice; 30 nmol/kg) is reported as −29.0% and the EC50 [1] is reported as 0.0227 nM. For the same compound, the “% Relative Potency Ratio” value [1] was 4.0, the bioavailability (in vivo) was 102% and the half-life (in vivo) was 6.4 h. For the same compound, the EC50 [2] was 0.0464 nM, the “GLP-1R KO % glucose change - 60 min” value ([3]; 10 nmol/kg) was 46.2% and the “GLP-1R KO % glucose change - 60 min” value ([3]; 30 nmol/kg) was 59.8%. For the same compound, the “24 hr % Vehicle Food Intake” value [4] was 65.4%.

For `CC(C)C[C@H](NC(=O)[C@H](Cc1c[nH]c2ccccc12)NC(=O)[C@H](CCC(N)=O)NC(=O)[C@@H](NC(=O)[C@H](Cc1ccccc1)NC(=O)[C@H](CC(=O)O)NC(=O)[C@H](CCCNC(=N)N)NC(=O)[C@H](C)NC(=O)[C@H](CCCNC(=N)N)NC(=O)[C@H](CCCCNC(=O)COCCOCCNC(=O)COCCOCCNC(=O)CC[C@H](NC(=O)CCCCCCCCCCCCCCCCC(=O)O)C(=O)O)NC(=O)[C@H](CCCCN)NC(=O)[C@H](CC(=O)O)NC(=O)[C@H](CC(C)C)NC(=O)[C@](C)(Cc1ccccc1)NC(=O)[C@H](CCCCN)NC(=O)[C@H](CO)NC(=O)[C@@H](NC(=O)[C@H](CC(=O)O)NC(=O)[C@H](CO)NC(=O)[C@@H](NC(=O)[C@H](Cc1ccccc1)NC(=O)[C@@H](NC(=O)CNC(=O)[C@H](CCC(N)=O)NC(=O)C(C)(C)NC(=O)[C@@H](N)Cc1c[nH]cn1)[C@@H](C)O)[C@@H](C)O)C(C)C)C(C)C)C(=O)N[C@@H](CC(C)C)C(=O)NC(C)(C)C(=O)N[C@@H](CCC(=O)O)C(N)=O` [Peptide 472] (H-H[Aib]QGTFTSDVSK[αMeF]LDKK([AEEA-AEEA-γGlu-C18 diacid])RARDFVQWLL[Aib]E-NH2; N-terminus assumed), the EC50 [1] was 0.00763 nM, the “% Relative Potency Ratio” value [1] was 2.9 and the bioavailability (in vivo) was 83%. It also gave a half-life (in vivo) of 2.9 h and an EC50 [2] of 0.0111 nM.

For `CC(C)C[C@H](NC(=O)[C@H](CC(C)C)NC(=O)[C@H](Cc1c[nH]c2ccccc12)NC(=O)[C@H](CCCNC(=N)N)NC(=O)[C@@H](NC(=O)[C@H](Cc1ccccc1)NC(=O)[C@H](CC(=O)O)NC(=O)[C@H](CCC(N)=O)NC(=O)[C@H](C)NC(=O)[C@H](CCCNC(=N)N)NC(=O)[C@H](CCCCNC(=O)COCCOCCNC(=O)COCCOCCNC(=O)CC[C@H](NC(=O)CCCCCCCCCCCCCCCCCCC(=O)O)C(=O)O)NC(=O)[C@@H](NC(=O)[C@H](CC(=O)O)NC(=O)[C@H](CC(C)C)NC(=O)[C@](C)(Cc1ccccc1)NC(=O)[C@H](CCCCN)NC(=O)[C@H](CO)NC(=O)[C@@H](NC(=O)[C@H](CC(=O)O)NC(=O)[C@H](CO)NC(=O)[C@@H](NC(=O)[C@H](Cc1ccccc1)NC(=O)[C@@H](NC(=O)CNC(=O)[C@H](CCC(N)=O)NC(=O)C(C)(C)NC(=O)[C@@H](N)Cc1c[nH]cn1)[C@@H](C)O)[C@@H](C)O)C(C)C)[C@@H](C)O)C(C)C)C(=O)N[C@@H](C)C(=O)NC(C)(C)C(=O)NCC(N)=O` [Peptide 477] (H-H[Aib]QGTFTSDVSK[αMeF]LDTK([AEEA-AEEA-γGlu-C20 diacid])RAQDFVRWLLA[Aib]G-NH2; N-terminus assumed), the EC50 [1] was 0.0541 nM, the “% Relative Potency Ratio” value [1] was 4.3 and the bioavailability (in vivo) was 50%. The half-life (in vivo) was 8.9 h and the EC50 [2] was 0.117 nM.
